Test results taken from the METLIN SMRT retention time set (Domingo-Almenara et al. 2019).

Test: gradient 5% acetonitrile 3 min, to 50% in 2 min, to 85% in 15 min, held 3 min, 100 µL/min
Details: column: Zorbax Extend-C18 2.1 x 50 mm; eluents: water / acetonitrile, 0.1% formic acid
In short: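 Using water and acetonitrile that each contained 0.1% formic acid, mixtures of ~100 pure standards were separated at 100 μL/min on a Zorbax Extend-C18 column (2.1 × 50 mm, 1.8 μm). The HPLC fed a quadrupole time-of-flight mass spectrometer working in positive and negative ionization mode, with dead and dwell volumes of 40 μL and 900 μL. Data were acquired over 3 months. Retention time was read from computationally picked adduct peaks after manual inspection of each.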

Row | Structure (SMILES) | RP-LC retention time [s]
1 | Cc1ccc2c(c1)cc(S(=O)(=O)c1ccccc1)c(=O)n2CC(=O)NCC1CCCO1 (stereo not drawn) | 765
2 | CC(C)N1C(=O)c2cccnc2Sc2cc(NC(=O)Cc3ccc(Cl)cc3)ccc21 | 954
3 | COc1ccc(CCCOC(Cn2ccnc2)c2ccc(OC)cc2)cc1 (stereo not drawn) | 785
4 | O=C(Cn1cccc(-c2nc(-c3ccc(F)cc3)no2)c1=O)Nc1ccc2c(c1)OCCO2 | 832
5 | CCOC1CCN(C(=O)Nc2ccccc2C)CC1 | 732
6 | O=C(NCCc1cccs1)c1cc2n(n1)CCCN(Cc1cccc(F)c1)C2=O | 843
7 | COC(=O)CCN(C(=O)c1ccc(OC(C)=O)cc1)c1ccccn1 | 668
8 | Cc1cc(Br)ccc1NC(=O)C1CCN(C(=O)c2cccn2-c2cccnc2)CC1 | 763
9 | CN1C(=O)CC[C@]2(C(=O)NCc3ccc(F)c(Cl)c3)CCCC[C@@H]12 | 718
10 | Cc1cccc(C(=O)NCCc2cn(CC(C)C)c3ncccc23)c1 | 827
11 | CCc1cc(=O)n(CC(=O)Nc2cccc(C(C)=O)c2)c(N2CCOCC2)n1 | 677
12 | Cn1nc(C2CCCN2C(=O)C2(c3ccccc3)CC2)n(Cc2ccccc2)c1=O (stereo not drawn) | 830
13 | O=C(Nc1ccc(-c2nc3ccccc3o2)cc1)c1ccc(S(=O)(=O)N2CCCC2)cc1 | 1000
14 | COC(=O)c1cnc2nc(C)ccc2c1Nc1cccc(Cl)c1F | 704
15 | CCc1nc2cc(-c3noc(Cc4ccc(OC)c(Cl)c4)n3)ccc2o1 | 1120
16 | CCOC(=O)c1ccc(NC(=O)c2c(OC)cc(=O)n3c2CCCC3)cc1 | 718
17 | COc1ccc(N2CCN(C(=O)Cn3ccc4c(SCc5ccccc5)nccc43)CC2)cc1 | 743
18 | CN(C)c1ccc(CNC(=O)Cn2cc(-c3nnco3)c3ccccc32)cc1 | 615
19 | Cc1ccsc1CN1CCn2nnc(CCC(=O)N3CCOCC3)c2C1 | 628
20 | COC(=O)[C@H](Cc1ccc([N+](=O)[O-])cc1)NC(=O)c1cccc2ccccc12 | 909
21 | COCCN1C(=O)[C@H]2CN(Cc3ccc(C(C)C)cc3)C[C@H]2C1=O | 674
22 | CC1=C2C3OC(=O)C(C)C3CCC2(C)C=C(Cl)C1=O (stereo not drawn) | 914

Row | Structure (SMILES) | RP-LC retention time [s]
23 | O=S(=O)(Cc1ccc(F)cc1)NCC1(c2ccc(F)cc2)CC1 | 700
24 | CO[C@H]1CN(C2CCN(Cc3ccc(C)o3)CC2)[C@H]1c1ccncc1 | 588
25 | Cc1ccc(CNC(=O)c2cn3cccc(C)c3n2)cc1 | 686
26 | O=C(CSCc1ccccc1)NCCS(=O)(=O)N1CCN(c2ncccn2)CC1 | 746
27 | Cc1cccc(-c2noc(C3CCCN3S(=O)(=O)c3ccc(Cl)cc3C)n2)c1 (stereo not drawn) | 1300
28 | CCc1nc(OCC(=O)Nc2ccc(C)cc2Cl)c2ccccc2n1 | 885
29 | Fc1ccc(-n2cc(-c3noc(-c4ccccc4F)n3)nn2)cc1 | 1040
30 | CC(=O)c1ccc(N(C(C)=O)S(=O)(=O)c2ccc(Cl)cc2)cc1 | 841
31 | Cc1[nH]c(C(=O)N2CCCC(C(=O)NCCN3CCCCCC3)C2)c(C)c1C(=O)OC(C)C (stereo not drawn) | 654
32 | O=C(CCn1nnc2cc(-c3noc(C4(c5ccccc5)CC4)n3)ccc21)N1CCCC1 | 958
33 | COC(=O)c1nc(NC(=O)Cn2nc3c(cc2=O)CCCCC3)sc1C | 778
34 | CC(C)c1ccc(CNC(=O)Cc2nnc(-c3ccc4ncccc4c3)o2)cc1 | 811
35 | Cn1nc(-c2nc(C(C)(C)C)no2)ccc1=O | 761
36 | CCC(=O)N(C)CCc1noc(-c2ccc(C(=O)NCCCOC)cc2)n1 | 650
37 | O=S(=O)(c1cc(-c2nnc(-c3ccc(F)cc3)o2)ccc1Cl)N1CCCC1 | 1070
38 | CCS(=O)(=O)Nc1ccc(-c2noc(CNC(=O)c3ccccc3)n2)cc1 | 744
39 | CCn1c(=O)c(C)nc2cc(-c3noc(C4CC(=O)N(c5ccc(C)cc5)C4)n3)ccc21 (stereo not drawn) | 884
40 | Cc1oc(-c2ccc(C(=O)NCCN(C)C)cc2)nc1CS(=O)c1ccccc1 (stereo not drawn) | 590
41 | CCCCOc1ccc(-c2ccc(=O)n(Cc3nc(-c4ccc(F)cc4)no3)n2)cc1 | 1290
42 | Cc1nn(CC(=O)O)c(=O)c2nc(-c3ccccc3)sc12 | 701
43 | Cc1ccc(C)c(N2CCN(C(=O)C3CCCCN3S(=O)(=O)c3ccc(F)cc3)CC2)c1 (stereo not drawn) | 1250
44 | O=C(NCCS(=O)(=O)N1CCN(c2ccccc2)CC1)c1ccc(Br)o1 | 807

Row | Structure (SMILES) | RP-LC retention time [s]
45 | O=C(Nc1cccc(C(F)(F)F)c1)Nc1cccn2ncnc12 | 896
46 | COc1cc(-c2nnc(SCc3c(F)cccc3Cl)o2)cc(OC)c1OC | 1070
47 | COC(=O)c1cccc(COC(=O)C2=CN(C)S(=O)(=O)N=C2C)c1 | 874
48 | COc1ccc(-c2csc(NC(=O)/C=C/C(=O)O)n2)cc1 | 752
49 | Cn1cc2c3c(cccc31)CN(C(=O)Nc1cc(Cl)ccc1Cl)CC2 | 1170
50 | Cc1ccc(-n2ncc3c(=O)n(Cc4nc(-c5cccc(Br)c5)no4)cnc32)cc1 | 1180
51 | O=C(NC1CCCCCC1)c1cccnc1N1CCNC(c2ccccc2)C1 (stereo not drawn) | 656
52 | Cc1ccc(N(C)C(=O)CN2C(=O)CCCc3cc(S(=O)(=O)N4CCCCC4)ccc32)cc1 | 976
53 | CCOc1ccccc1NC(=O)C(=O)Nc1ccc([N+](=O)[O-])cc1 | 1060
54 | Cc1ccc(NC(=O)N2CCN(c3cc(C)nc(N4CCOCC4)n3)CC2)c(Cl)c1 | 669
55 | Cc1[nH]c(C(=O)N2CCC(CC(=O)NC3CCCC3)CC2)c(C)c1C(=O)OC(C)C | 778
56 | CCCCNC(=O)C1CCN(Cc2cn(C)c3ccc(Cl)cc23)CC1 | 667
57 | O=C(Cc1csc2nc(-c3ccccc3)cn12)Nc1cccc(Br)c1 | 906
58 | CCOC(=O)C1CCN(C(=O)C2CN(C(=O)c3ccc(F)c(F)c3)C2)CC1 | 696
59 | Cc1noc(-c2nn(C)c3c2CN(C(=O)NC(C)(C)C)CC3)n1 | 680
60 | CN(C)c1cccc(-c2nc(-c3cn(-c4ccc(F)cc4)nn3)no2)c1 | 1100
61 | CCOc1ccc(NC(=O)N2CCCC2c2cc(C)on2)cc1 (stereo not drawn) | 854
62 | Cc1ccc(CNC(=O)C2CCN(S(=O)(=O)c3c(C)[nH]c(C)c3C(=O)N3CCCC3)CC2)cc1 | 720
63 | O=C(CCc1nc(-c2cccnc2)no1)NCCc1c[nH]c2ccccc12 | 709
64 | Cc1csc(-c2ccc(N3CCN(C(=O)c4cccs4)CC3)nc2)n1 | 781
65 | Cc1nc2cc(-c3noc(-c4ccc(Br)cc4)n3)ccc2o1 | 1230
66 | Cc1cc(C)c(NC(=O)CN2C(=O)NC3(CCCCC3)C2=O)c(C)c1 | 777

Row | Structure (SMILES) | RP-LC retention time [s]
67 | Cc1cccc(-c2nc(C3CCN(S(=O)(=O)c4ccccc4)CC3)no2)c1 | 1150
68 | Cc1oc(-c2[nH]ncc2C(=O)N2CCCCC2)cc1S(=O)(=O)N1CCOCC1 | 654
69 | O=C(CCC1CCCCC1)NC1CCN(c2ccc(=O)n(CC3CC3)n2)CC1 | 924
70 | O=C(Cn1nc2nc(Nc3ccc(F)cc3)ccn2c1=O)NCc1ccc(F)cc1Cl | 753
71 | CC(=O)N1N=C(c2ccc(Br)cc2)CC1c1ccc2ncccc2c1 (stereo not drawn) | 677
72 | CCC(c1cccs1)N1C(=O)[C@H]2CN(S(=O)(=O)c3ccccc3)C[C@H]2C1=O (stereo partly drawn) | 946
73 | Cc1ccc2ncn3c(=O)n(CC(=O)Nc4ccc(C(C)C)cc4)nc3c2c1 | 754
74 | CCCN1C(=O)COc2ccc(-c3noc(Cc4c[nH]c5ccccc45)n3)cc21 | 1040
75 | CSc1ccc(CNC(=O)Cn2cnc3nc4c(cc3c2=O)CCCC4)cc1 | 733
76 | Cc1ccc(NC(=O)N2CCC(OC3CCN(S(C)(=O)=O)CC3)CC2)cc1F | 792
77 | O=c1c2sccc2n(Cc2nc(-c3ccccc3)no2)c(=O)n1Cc1ccccc1 | 985
78 | O=C(C1CCC1)N1CCc2sc(S(=O)(=O)Nc3cccc(Cl)c3)cc2C1 | 941
79 | COc1ccc(CCN2C(=O)CC(Nc3ccc(N4CCOCC4)cc3)C2=O)cc1OC (stereo not drawn) | 583
80 | CN(C)c1ccc(/C=C2\SC(=O)N(CC(=O)Nc3ccccc3C(F)(F)F)C2=O)cc1 | 992
81 | O=C(c1cc(-c2ccncc2)n[nH]1)N1CCN(C(=O)c2cccc3[nH]ccc23)CC1 | 571
82 | Cc1ccc2[nH]c(C(=O)NCc3ccncc3)cc2c1 | 628
83 | Cc1nc2ccn(Cc3cccs3)c(=O)c2cc1C(=O)NCCC1=CCCCC1 | 931
84 | O=C(c1cccc(F)c1)N1CCN(S(=O)(=O)c2cc3c4c(c2)CCC(=O)N4CCC3)CC1 | 784
85 | CC(C)Cn1cc(S(=O)(=O)N2CCc3ccccc3C2)c2cccnc21 | 784
86 | Cc1ccc(Nc2c(-c3ccccc3)nc3ccc(C)cn23)cc1 | 750
87 | O=C(Nc1nc(-c2ccc(Br)s2)cs1)c1ccc([N+](=O)[O-])s1 | 1120
88 | O=c1[nH]c2ccc(NCc3ccc(-c4ccccc4)cc3)cc2[nH]1 | 674
